A short description of assay [1]: Body weight in letrozole induced PCOS mouse model. It is filed as in vivo, C57BL/6 mice. The following applies: 300 ng/kg i.p. 3 times per week for 6 weeks. The procedure: 2.5-week-old female C57BL/6 mice (Charles River, MA, USA) are housed in a vivarium for 1 week under specific pathogen-free conditions. The animal experiment protocol for this study is approved, and all animal experiments are performed in compliance with policies and guidelines for use of laboratory animals. At 3.5 weeks of age, mice (n=11/group) are subcutaneously implanted with a placebo or 5 mg letrozole (LTZ) pellet (Innovative Research of America, Sarasota, FL, USA), which provides a constant release of LTZ (50 μg/day). Body weight is monitored weekly before and post-implantation. Body weight and insulin resistance (measured by glucose tolerance test, GTT) are used to monitor development of PCOS characteristics. Five weeks after placebo or LTZ pellet implantation, mice undergo intraperitoneal injection of doxercalciferol (300 ng/kg) or saline 3 times per week for 6 weeks. Six weeks after doxercalciferol treatment, the mice are anesthetized and ovary, uterus, gonadal white fat, kidney, and liver tissue are collected. Each of these tissues are fixed in 4% paraformaldehyde for further histological analysis.

The test system of another assay is H295R cells. Briefly: Androgen producing gene expression in H295R cells (qPCR). It is filed as cell-based, human. The settings on record: 24 hours. The procedure: H295R cells are subcultured in T75 flasks for 24 hours. Cells are then treated for 24 hours with serum free basal media as a control or doxercalciferol at 1 nM, 10 nM, or 100 nM diluted in basal media (serum-free) at a 1:1 ratio. After the incubation period, cells are imaged and analyzed for morphology and cell count. Cells are then collected for analysis of steroidogenesis-related gene expression. Cell culture media are collected and used for testosterone quantification using ELISA based Testosterone Parameter Assay Kit (R&D system) per the manufacturer's protocol. The testosterone level is quantified using a multimode microplate reader system, Varioskan LUX Multimode Microplate Reader (Thermo Fisher).
RNA is extracted from H295R cells treated with doxercalciferol. RNA extraction is done using TRIzol (Invitrogen, USA) according to the manufacturer's instructions. The concentration and purity of the extracted RNA are checked using a NanoDrop spectrometer (Thermo Scientific, MA, USA). For qPCR of steroidogenesis related genes in H295R cells 1 μg of total RNA is reverse transcribed using RNA to cDNA EcoDry™ Premix (Double Primed) (Takara Bio USA Inc., CA, USA). The reaction mixture is incubated for 1 hour at 42° C.; incubation is stopped at 70° C. for 10 min. qPCR is performed using the CFX96 PCR instrument and SYBR Green Supermix (Bio-Rad, Hercules, CA, USA) with specific primers (RT^2 Profiler PCR Array for Human Adipogenesis, PAHS-049ZA, QIAGEN) to the target genes in a 20 μL final reaction volume. The delta-delta threshold cycle (ΔΔCt) method is used to calculate the fold change expression in mRNA level in the samples.

A further assay has as its system SW872 cells. Put plainly: Obesity related cytokine antibody array of SW872 secretomes. It is filed as cell-based, human. The settings on record: SW872 secretome, 10 nM, 24 hours. The procedure: SW872 cells are subcultured in T75 flasks for 24 hours. Cells are then treated for 24 hours with serum free basal media as a control or doxercalciferol at 1 nM, 10 nM, or 100 nM diluted in basal media (serum-free). After the incubation period, cells are imaged and analyzed for morphology and cell count. Cells are then collected for analysis of adipogenesis-related gene expression and cell culture media are collected for analysis of obesity related cytokines. Cell culture media are collected from SW872 cells after 24 hours of 10 nM doxercalciferol treatment. The media is analyzed for obesity related cytokines using a membrane-based antibody array (Ray Biotech, GA, USA) per the manufacturer's protocol, and then quantified using a multimode microplate reader system, Varioskan LUX Multimode Microplate Reader (Thermo Fisher).

We go through one compound from patent publication US20240293337A1, “USE OF DOXERCALCIFEROL TO TREAT AND/OR PREVENT UTERINE FIBROIDS OR POLYCYSTIC OVARY SYNDROME” (priority 2023, published 2024).

Each structure is given as a SMILES string.

Take `C=C1/C(=C\C=C2/CCC[C@]3(C)[C@@H]([C@H](C)/C=C/[C@H](C)C(C)C)CC[C@@H]23)C[C@@H](O)C[C@@H]1O` [doxercalciferol]: in assay [1], the “mouse body weight after treatment, vs control mice” value is reported as “no significant weight difference”; the “mouse body weight after treatment, vs untreated PCOS mice” value was “PCOS mice weigh significantly more than both control and doxercalciferol treated PCOS mice”. The “mouse body weight during treatment” value in assay [1] (PCOS mice) was “lowers PCOS mouse weight”. In the assay on H295R cells (1 nM), the CYP11A1 gene expression result is recorded as “not significantly changed” and the CYP17A1 gene expression entry is “significantly increased”. In the assay with H295R cells (10 nM), the CYP11A1 gene expression entry is recorded as “significantly increased” and the CYP17A1 gene expression entry was “not significantly changed”. For the same compound, in the assay on H295R cells (100 nM), the CYP11A1 gene expression entry is reported as “significantly decreased” and the CYP17A1 gene expression result is recorded as “significantly decreased”. Further, in the assay on SW872 cells, the CCL5 cytokine production entry was “significantly downregulates”, the CCL18 cytokine production result is “significantly downregulates”, the CXCL10 cytokine production entry was “significantly downregulates” and the MIF cytokine production entry is “significantly downregulates”. For the same compound, in the assay on SW872 cells, the TIMP-2 cytokine production result is “significantly downregulates”, the “TNF RII cytokine production” value is recorded as “significantly downregulates” and the “TNF alpha cytokine production” value is given as “significantly downregulates”.
